Laboratory results: ChEMBL document CHEMBL4229426, “Synthesis, antitumor activity evaluation and mechanistic study of novel hederacolchiside A1 derivatives bearing an aryl triazole moiety” (Bioorg Med Chem, 2018)

Experiments:
Type in all cases: functional, cell-based
U-937 = experiment: Antiproliferative activity against human U937 cells after 48 hrs by MTT assay; conditions: U-937, 48 h
PC-3 = experiment: Antiproliferative activity against human PC3 cells after 48 hrs by MTT assay; conditions: PC-3, 48 h
HepG2 = experiment: Antiproliferative activity against human HepG2 cells after 48 hrs by MTT assay; conditions: HepG2, 48 h
HT-29 = experiment: Antiproliferative activity against human HT-29 cells after 48 hrs by MTT assay; conditions: HT-29, 48 h
A549 = experiment: Antiproliferative activity against human A549 cells after 48 hrs by MTT assay; conditions: A549, 48 h
HL-60 = experiment: Antiproliferative activity against human HL60 cells after 48 hrs by MTT assay; conditions: HL-60, 48 h

| SMILES | IC50 (U-937) [µM] | IC50 (PC-3) [µM] | IC50 (HepG2) [µM] | IC50 (HT-29) [µM] | IC50 (A549) [µM] | IC50 (HL-60) [µM] |
| --- | --- | --- | --- | --- | --- | --- |
| C[C@@H]1O[C@@H](O[C@H]2[C@H](O[C@H]3CC[C@]4(C)[C@H]5CC=C6[C@@H]7CC(C)(C)CC[C@]7(C(=O)NCc7cn(-c8c(Cl)cccc8Cl)nn7)CC[C@@]6(C)[C@]5(C)CC[C@H]4C3(C)C)OC[C@H](O[C@@H]3O[C@H](CO)[C@@H](O)[C@H](O)[C@H]3O)[C@@H]2O)[C@H](O)[C@H](O)[C@H]1O | 18.4 | 41.9 | 23 | 37.8 | 6.68 | 28.2 |
| COc1ccc(-n2cc(CNC(=O)[C@]34CCC(C)(C)C[C@H]3C3=CC[C@@H]5[C@@]6(C)CC[C@H](O[C@@H]7OC[C@H](O[C@@H]8O[C@H](CO)[C@@H](O)[C@H](O)[C@H]8O)[C@H](O)[C@H]7O[C@@H]7O[C@@H](C)[C@H](O)[C@@H](O)[C@H]7O)C(C)(C)[C@@H]6CC[C@@]5(C)[C@]3(C)CC4)nn2)cc1 | 0.79 | 0.55 | 3.58 | 1.13 | 4.86 | 2.48 |
| C[C@@H]1O[C@@H](O[C@H]2[C@H](O[C@H]3CC[C@]4(C)[C@H]5CC=C6[C@@H]7CC(C)(C)CC[C@]7(C(=O)NCc7cn(-c8ccccc8[N+](=O)[O-])nn7)CC[C@@]6(C)[C@]5(C)CC[C@H]4C3(C)C)OC[C@H](O[C@@H]3O[C@H](CO)[C@@H](O)[C@H](O)[C@H]3O)[C@@H]2O)[C@H](O)[C@H](O)[C@H]1O | 40.1 | 50.5 | 34.9 | 7.76 | 54.9 | 36.7 |
| C[C@@H]1O[C@@H](O[C@H]2[C@H](O[C@H]3CC[C@]4(C)[C@H]5CC=C6[C@@H]7CC(C)(C)CC[C@]7(C(=O)NCc7cn(-c8ccccc8)nn7)CC[C@@]6(C)[C@]5(C)CC[C@H]4C3(C)C)OC[C@H](O[C@@H]3O[C@H](CO)[C@@H](O)[C@H](O)[C@H]3O)[C@@H]2O)[C@H](O)[C@H](O)[C@H]1O | 8.79 | 45 | 25.8 | 9.3 | 3.74 | 18.5 |
| C[C@@H]1O[C@@H](O[C@H]2[C@H](O[C@H]3CC[C@]4(C)[C@H]5CC=C6[C@@H]7CC(C)(C)CC[C@]7(C(=O)NCc7cn(-c8ccc(Cl)cc8)nn7)CC[C@@]6(C)[C@]5(C)CC[C@H]4C3(C)C)OC[C@H](O[C@@H]3O[C@H](CO)[C@@H](O)[C@H](O)[C@H]3O)[C@@H]2O)[C@H](O)[C@H](O)[C@H]1O | 0.94 | 5.64 | 2.13 | 41 | 1.87 | 4.52 |
| Cc1cccc(C)c1-n1cc(CNC(=O)[C@]23CCC(C)(C)C[C@H]2C2=CC[C@@H]4[C@@]5(C)CC[C@H](O[C@@H]6OC[C@H](O[C@@H]7O[C@H](CO)[C@@H](O)[C@H](O)[C@H]7O)[C@H](O)[C@H]6O[C@@H]6O[C@@H](C)[C@H](O)[C@@H](O)[C@H]6O)C(C)(C)[C@@H]5CC[C@@]4(C)[C@]2(C)CC3)nn1 | 8.48 | 8.96 | 3.31 | 7.66 | 6.08 | 4.47 |
| C[C@@H]1O[C@@H](O[C@H]2[C@H](O[C@H]3CC[C@]4(C)[C@H]5CC=C6[C@@H]7CC(C)(C)CC[C@]7(C(=O)NCc7cn(-c8cccc(Br)c8)nn7)CC[C@@]6(C)[C@]5(C)CC[C@H]4C3(C)C)OC[C@H](O[C@@H]3O[C@H](CO)[C@@H](O)[C@H](O)[C@H]3O)[C@@H]2O)[C@H](O)[C@H](O)[C@H]1O | 0.72 | 0.49 | 7.29 | 1.77 | 0.89 | 0.99 |
| Cc1cccc(-n2cc(CNC(=O)[C@]34CCC(C)(C)C[C@H]3C3=CC[C@@H]5[C@@]6(C)CC[C@H](O[C@@H]7OC[C@H](O[C@@H]8O[C@H](CO)[C@@H](O)[C@H](O)[C@H]8O)[C@H](O)[C@H]7O[C@@H]7O[C@@H](C)[C@H](O)[C@@H](O)[C@H]7O)C(C)(C)[C@@H]6CC[C@@]5(C)[C@]3(C)CC4)nn2)c1 | 3.93 | 3.93 | 3.49 | 4.33 | 0.18 | 4.64 |
| C[C@@H]1O[C@@H](O[C@H]2[C@H](O[C@H]3CC[C@]4(C)[C@H]5CC=C6[C@@H]7CC(C)(C)CC[C@]7(C(=O)O)CC[C@@]6(C)[C@]5(C)CC[C@H]4C3(C)C)OC[C@H](O[C@@H]3O[C@H](CO)[C@@H](O)[C@H](O)[C@H]3O)[C@@H]2O)[C@H](O)[C@H](O)[C@H]1O [HEDERACOLCHISIDE A1] | 2.37 | 0.85 | 4.21 | 4.77 | 5.41 | 3.13 |
| Cc1ccccc1-n1cc(CNC(=O)[C@]23CCC(C)(C)C[C@H]2C2=CC[C@@H]4[C@@]5(C)CC[C@H](O[C@@H]6OC[C@H](O[C@@H]7O[C@H](CO)[C@@H](O)[C@H](O)[C@H]7O)[C@H](O)[C@H]6O[C@@H]6O[C@@H](C)[C@H](O)[C@@H](O)[C@H]6O)C(C)(C)[C@@H]5CC[C@@]4(C)[C@]2(C)CC3)nn1 | 4.68 | 5.03 | 1.51 | 5.35 | 4.13 | 3.84 |
| CC(=O)c1cccc(-n2cc(CNC(=O)[C@]34CCC(C)(C)C[C@H]3C3=CC[C@@H]5[C@@]6(C)CC[C@H](O[C@@H]7OC[C@H](O[C@@H]8O[C@H](CO)[C@@H](O)[C@H](O)[C@H]8O)[C@H](O)[C@H]7O[C@@H]7O[C@@H](C)[C@H](O)[C@@H](O)[C@H]7O)C(C)(C)[C@@H]6CC[C@@]5(C)[C@]3(C)CC4)nn2)c1 | 0.81 | 6.28 | 0.5 | 3.33 | 0.44 | 5.66 |
| C[C@@H]1O[C@@H](O[C@H]2[C@H](O[C@H]3CC[C@]4(C)[C@H]5CC=C6[C@@H]7CC(C)(C)CC[C@]7(C(=O)NCc7cn(-c8ccc([N+](=O)[O-])cc8)nn7)CC[C@@]6(C)[C@]5(C)CC[C@H]4C3(C)C)OC[C@H](O[C@@H]3O[C@H](CO)[C@@H](O)[C@H](O)[C@H]3O)[C@@H]2O)[C@H](O)[C@H](O)[C@H]1O | 6.85 | 5.56 | 26.6 | 3.04 | 3.98 | 21.1 |
| C[C@@H]1O[C@@H](O[C@H]2[C@H](O[C@H]3CC[C@]4(C)[C@H]5CC=C6[C@@H]7CC(C)(C)CC[C@]7(C(=O)NCc7cn(-c8ccc(C(F)(F)F)cc8)nn7)CC[C@@]6(C)[C@]5(C)CC[C@H]4C3(C)C)OC[C@H](O[C@@H]3O[C@H](CO)[C@@H](O)[C@H](O)[C@H]3O)[C@@H]2O)[C@H](O)[C@H](O)[C@H]1O | 0.95 | 3.98 | 2.45 | 4.56 | 4.9 | 5.23 |
| C[C@@H]1O[C@@H](O[C@H]2[C@H](O[C@H]3CC[C@]4(C)[C@H]5CC=C6[C@@H]7CC(C)(C)CC[C@]7(C(=O)NCc7cn(-c8ccccc8F)nn7)CC[C@@]6(C)[C@]5(C)CC[C@H]4C3(C)C)OC[C@H](O[C@@H]3O[C@H](CO)[C@@H](O)[C@H](O)[C@H]3O)[C@@H]2O)[C@H](O)[C@H](O)[C@H]1O | 4.51 | 39.3 | 5.39 | 30.9 | 7.09 | 5.45 |
| C[C@@H]1O[C@@H](O[C@H]2[C@H](O[C@H]3CC[C@]4(C)[C@H]5CC=C6[C@@H]7CC(C)(C)CC[C@]7(C(=O)NCc7cn(-c8cccc(F)c8)nn7)CC[C@@]6(C)[C@]5(C)CC[C@H]4C3(C)C)OC[C@H](O[C@@H]3O[C@H](CO)[C@@H](O)[C@H](O)[C@H]3O)[C@@H]2O)[C@H](O)[C@H](O)[C@H]1O | 3.12 | 0.72 | 0.9 | 2.23 | 4.25 | 1.32 |
| CC(=O)c1ccc(-n2cc(CNC(=O)[C@]34CCC(C)(C)C[C@H]3C3=CC[C@@H]5[C@@]6(C)CC[C@H](O[C@@H]7OC[C@H](O[C@@H]8O[C@H](CO)[C@@H](O)[C@H](O)[C@H]8O)[C@H](O)[C@H]7O[C@@H]7O[C@@H](C)[C@H](O)[C@@H](O)[C@H]7O)C(C)(C)[C@@H]6CC[C@@]5(C)[C@]3(C)CC4)nn2)cc1 | 0.78 | 46.9 | 33 | 6.42 | 0.28 | 4.66 |
